The values that follow come from patent publication US5684034A, “1H-indole-3-acetamide sPLA2 inhibitors” (Eli Lilly and Company, priority 1995, dated 1997).

“And” between values parts separate entries of the source, which are not always exact repeats. Identical values can stand only once. Counter-ions that a name gives are not always drawn.

The first experiment deals with T1, recombinant human secreted phospholipase A2 (Homo sapiens, UniProt P14555).
T1 sequence (P14555 21-144): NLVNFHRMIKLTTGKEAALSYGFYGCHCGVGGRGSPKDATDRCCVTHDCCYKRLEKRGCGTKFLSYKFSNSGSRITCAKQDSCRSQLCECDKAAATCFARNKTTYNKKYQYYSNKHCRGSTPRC
Briefly: Human secreted phospholipase A2 inhibition test (chromogenic assay, diheptanoyl thio-PC substrate). The format is biochemical. As to conditions: Inhibition of human secreted PLA2 IC50 ± mean deviation (3-5 tests), pH 7.5, 40° C., 30 minutes, 405 nm. How it is done:
The following chromogenic assay procedure was used to identify and evaluate inhibitors of recombinant human secreted phospholipase A2. The assay described herein has been adapted for high volume screening using 96 well microtiter plates.
A measured volume of racetic dipheptanoyl thio PC supplied in chloroform at a concentration of 100 mg/ml is taken to dryness and redissolved in 10 millimolar TRITON X-100™ nonionic detergent aqueous solution. Reaction Buffer is added to the solution, then DTNB to give the Reaction Mixture.
The reaction mixture thus obtained contains 1 mM diheptanoly thio-PC substrate, 0.29 mm Triton X-100™ detergent, and 0.12 mm DTMB in a buffered aqueous solution at pH 7.5.
1. Add 0.2 ml reaction mixture to all wells;
2. Add 10 ul test compound (or solvent blank) to appropriate wells, mix 20 seconds:
3. Add 50 nanograms of sPLA2 (10 microliters) to appropriate wells;
4. incubate plate at 40° C. for 30 minutes;
All compounds were tested in triplicate. […] Each sample was titrated in triplicate and result values were averaged for plotting and calculation of IC50 values. […] Each IC50 value was determined three times.
As usually defined, the IC50 is the midpoint of a concentration-inhibition curve. As for `CCc1c(CC(N)=O)c2cc(OCCCP(=O)(OC)OC)ccc2n1Cc1ccccc1` [Example 61, [3-[[3-(2-Amino-2-oxoethyl)-2-ethyl-1-(phenylmethyl)-1H-indol-5-yl]oxy]propyl]phosphonic acid dimethyl ester], the IC50 amounted to 270 nM.
On the same count and under the same terms, the result for `CCc1c(CC(N)=O)c2cc(OCCCP(=O)(O)OC)ccc2n1Cc1ccccc1` [Example 63, [3-[[3-(2-Amino-2-oxoethyl)-2-ethyl-1-(phenylmethyl)-1H-indol-5-yl]oxy]propyl]phosphonic acid monomethyl ester] reads 39 ± 5 nM; that for `CCOP(=O)(COc1cccc2c1c(CC(N)=O)c(C)n2Cc1ccccc1)OCC` [Example 67], 1680 nM; that for `Cc1c(CC(N)=O)c2c(OCC(=O)O)cccc2n1Cc1cccc(Cl)c1` [Example 72, [[3-(2-Amino-2-oxoethyl)-1-[(3-chlorophenyl)methyl]-2-methyl-1H-indol-4-yl]oxy]methyl]acetic acid sodium salt], 50 ± 150 nM.
As to `NC(=O)Cc1c(C2CC2)n(Cc2ccccc2)c2ccc(OCCCP(=O)(O)O)cc12` [Example 79, [3-[[3-(2-Amino-2-oxoethyl)-2-cyclopropyl-1-(phenylmethyl)-1H-indol-5-yl]oxy]propyl]phosphonic acid], the IC50 came out at 46 ± 6 nM.
Regarding `NC(=O)Cc1cn(Cc2ccccc2)c2ccc(OCCCP(=O)(O)O)cc12` [Example 80, [3-[[3-(2-Amino-2-oxoethyl)-1-(phenylmethyl)-1H-indol-5-yl]oxy]propyl]phosphonic acid], the IC50 is 200 ± 90 nM.
Turning to `NC(=O)Cc1cn(Cc2ccccc2)c2ccc(OCP(=O)(O)O)cc12` [Example 81, [[3-(2-Amino-2-oxoethyl)-1-(phenylmethyl)-1H-indol-5-yl]oxy]methyl]phosphonic acid disodium salt], the IC50 is 3800 nM and 3600 nM.
Take `COP(=O)(CCCOc1ccc2c(c1)c(CC(N)=O)c(Br)n2Cc1ccccc1)OC` [Example 86, [3-[[3-(2-Amino-2-oxoethyl)-2-bromo-1-(phenylmethyl)-1H-indol-5-yl]oxy]propane]phosphonic acid dimethyl ester]: the IC50 is 420 ± 210 nM.
Turning to `COP(=O)(O)CCCOc1ccc2c(c1)c(CC(N)=O)c(Br)n2Cc1ccccc1` [Example 87], the IC50 turned out to be 72 ± 17 nM.
Turning to `NC(=O)Cc1c(Br)n(Cc2ccccc2)c2ccc(OCCCP(=O)(O)O)cc12` [Example 88], the IC50 was found to be 30 ± 6 nM.
Take `C=CCc1c(O)ccc2c1c(CC(N)=O)c(CC)n2Cc1ccccc1` [Example 93, 4-Allyl-2-ethyl-5-hydroxy-1-(phenylmethyl)-1H-indole-acetamide]: the IC50 was 140 ± 40 nM.
In the case of `Cc1c(CC(N)=O)c2cc(OCc3ccccc3C(=O)O)ccc2n1Cc1ccccc1` [Example 97, 2-[[[3-(2-Amino-2-oxoethyl)-2-methyl-1-(phenylmethyl)-1H-indol-5-yl]oxy]methyl]benzoic acid], the IC50 was 150 ± 10 nM.

The experiment is the same for the next values; noted with them: pH 7.5, 40° C., 30 minutes, 405 nm; read-out: Inhibition of human secreted PLA2 IC50 ± mean deviation (3-5 tests).
Regarding `CCCCCCCCn1c(C)c(CC(N)=O)c2cc(OCCCC(=O)O)ccc21` [Example 52], the IC50 was 770 ± 270 nM.
Regarding `CCCCCCCCCCn1c(C)c(CC(N)=O)c2cc(OCCCC(=O)O)ccc21` [Example 53], the IC50 is 680 nM.
`Cc1c(CC(N)=O)c2cc(OCCCC(=O)O)ccc2n1CC1CCCCC1` [Example 54]: the IC50 was determined as 650 ± 150 nM.
Same read-out and setting: as for `CCc1c(CC(N)=O)c2cc(O)ccc2n1Cc1ccccc1` [Example 56, 2-Ethyl-5-hydroxy-1-(phenylmethyl)-1H-indole-3-acetamide], the figure is 340 ± 100 nM; as for `CCOC(=O)CCCOc1ccc2c(c1)c(CC(N)=O)c(CC)n2Cc1ccccc1` [Example 57], 1270 nM; as for `CCc1c(CC(N)=O)c2cc(OCCCC(=O)NN)ccc2n1Cc1ccccc1` [Example 59], 74 nM.
On to `CCc1c(CC(N)=O)c2cc(OCCCC(N)=O)ccc2n1Cc1ccccc1` [Example 60, 5-(4-Amino-4-oxobutoxy)-2-ethyl-1-(phenylmethyl)-1H-indole-3-acetamide], for which the IC50 was 104 ± 17 nM.
As for `CCc1c(CC(N)=O)c2cc(OCCCP(=O)(O)O)ccc2n1Cc1cccc(Cl)c1` [Example 64, [3-[[3-(2-Amino-2-oxoethyl)-1-[(3-chlorophenyl)methyl]-2-ethyl-1H-indol-5-yl]oxy]propyl]phosphonic acid], the IC50 was determined as 16 ± 1 nM.
With `Cc1c(CC(N)=O)c2c(OCC(=O)NN)cccc2n1Cc1ccccc1` [Example 65, 4-(2-Hydrazino-2-oxoethoxy)-2-methyl-1-(phenylmethyl)-1H-indole-3-acetamide], the IC50 was found to be 360 ± 130 nM.
Still for that read-out and setting: as for `Cc1c(CC(N)=O)c2c(OCC(N)=O)cccc2n1Cc1ccccc1` [Example 66, 4-(2-Amino-2-oxoethoxy)-2-methyl-1-(phenylmethyl)-1H-indole-3-acetamide], the figure is 360 ± 70 nM; as for `COc1ccc2c(c1)c(CC(N)=O)c(C)n2Cc1cccc(Cl)c1` [Example 69, 1-[(3-Chlorophenyl)methyl]-5-methoxy-2-methyl-1H-indole-3-acetamide], 1380 ± 520 nM.
The same measure, in the same setting: as for `Cc1c(CC(N)=O)c2cc(O)ccc2n1Cc1cccc(Cl)c1` [Example 70, 1-[(3-Chlorophenyl)methyl]-5-hydroxy-2-methyl-1H-indole-3-acetamide], the figure is 5880 ± 1170 nM; as for `COC(=O)COc1cccc2c1c(CC(N)=O)c(C)n2Cc1cccc(Cl)c1` [Example 71], 2370 ± 790 nM.
On the same count and under the same terms, the result for `Cc1c(CC(N)=O)c2c(OCC(=O)O)cccc2n1Cc1ccccc1-c1ccccc1` [Example 73, [[3-(2-Amino-2-oxoethyl)-1-([1,1'-biphenyl]-2-ylmethyl)-2-methyl-1H-indol-4-yl]oxy]acetic acid sodium salt] reads 10 ± 1 nM.
Turning to `CCc1c(CC(N)=O)c2c(OCC(=O)O)cccc2n1Cc1cccc(Cl)c1` [Example 75, 2-[[3-(2-Amino-2-oxoethyl)-1-[(3-chlorophenyl)methyl]-2-ethyl-1H-indol-4-yl]oxy]acetic acid], the IC50 was 39 ± 4 nM.
`NC(=O)Cc1cn(Cc2ccccc2)c2cccc(OCC(=O)O)c12` [Example 76, 2-[[3-(2-Amino-2-oxoethyl)-1-(phenylmethyl)-1H-indol-4-yl]oxy]acetic acid]: the IC50 is 337 nM and 305 nM.
As for `COc1ccc2c(c1)c(CC(N)=O)c(C1CC1)n2Cc1ccccc1` [Example 77, 2-Cyclopropyl-5-methoxy-1-(phenylmethyl)-1H-indole-3-acetamide], the IC50 was 336 ± 23 nM.
On to `NC(=O)Cc1c(C2CC2)n(Cc2ccccc2)c2ccc(O)cc12` [Example 78, 2-Cyclopropyl-5-hydroxy-1-(phenylmethyl)-1H-indole-3-acetamide], for which the IC50 was determined as 118 ± 11 nM.
Take `NC(=O)Cc1cn(Cc2ccccc2)c2ccc(O)cc12` [Example 82, 5-Hydroxy-1-(phenylmethyl)-1H-indole-3-acetamide]: the IC50 worked out at 3680 ± 190 nM.
Take `NC(=O)Cc1cn(Cc2ccccc2)c2ccc(OCCCC(=O)O)cc12` [Example 83, 4-[[3-(2-Amino-2-oxoethyl)-1-(phenylmethyl)-1H-indol-5-yl]oxy]butanoic acid]: the IC50 is 150 ± 40 nM.
Consider `Cc1c(CC(N)=O)c2cc(OCCCS(=O)(=O)O)ccc2n1Cc1ccccc1` [Example 84, 3-[4-[[3-(2-Amino-2-oxoethyl)-2-methyl-1-(phenylmethyl)-1H-indol-5-yl]oxy]propane]sulfonic acid], for which the IC50 came to 195 ± 65 nM.
As to `COc1cc2c(CC(N)=O)c(Br)n(Cc3ccccc3)c2cc1Cl` [Example 89, 2-Bromo-6-chloro-5-methoxy-1-(phenylmethyl)-H-indole-3-acetamide], the IC50 is 120 ± 20 nM.
The same measure, in the same setting: as for `NC(=O)Cc1c(Br)n(Cc2ccccc2)c2cc(Cl)c(O)cc12` [Example 90, 2-Bromo-6-chloro-5-hydroxy-1-(phenylmethyl)-H-indole-3-acetamide], the figure is 90 ± 10 nM; as for `NC(=O)Cc1cn(Cc2ccccc2)c2cc(Cl)c(OCCCP(=O)(O)O)cc12` [Example 92, 3-[4-[[3-(2-Amino-2-oxoethyl)-6-chloro-1-(phenylmethyl)-1H-indol-5-yl]oxy]propyl]phosphonic acid], 14 ± 4 nM; as for `C=CCc1c(OCCCP(=O)(O)O)ccc2c1c(CC(N)=O)c(CC)n2Cc1ccccc1` [Example 94, [3-[[4-Allyl-3-(2-amino-2-oxoethyl)-2-ethyl-1-(phenylmethyl)-1H-indol-5-yl]oxy]propyl]phosphonic acid disodium salt], 612 ± 65 nM.
With `Cc1c(CC(N)=O)c2cc(Oc3ccccc3)ccc2n1Cc1ccccc1` [Example 95, 2-Methyl-5-phenoxy-1-(phenylmethyl)-1H-indole-3-acetamide], the IC50 amounted to 1010 ± 320 nM.
Take `COC(=O)c1ccccc1COc1ccc2c(c1)c(CC(N)=O)c(C)n2Cc1ccccc1` [Example 96, 2-[[[3-(2-Amino-2-oxoethyl)-2-methyl-1-(phenylmethyl)-1H-indol-5-yl]oxy]methyl]benzoic acid methyl ester]: the IC50 turned out to be 620 ± 180 nM.
Turning to `CCc1c(CC(N)=O)c2cc(OCc3ccccc3C(=O)OC)ccc2n1Cc1ccccc1` [Example 98, 2-[[[3-(2-Amino-2-oxoethyl)-2-ethyl-1-(phenylmethyl)-1H-indol-5-yl]oxy]methyl]benzoic acid methyl ester], the IC50 was 1150 ± 320 nM.
